We go through twelve compounds from PubChem BioAssay (NCI).

Some test systems named below: OVCAR-4 ovarian; SF-295 CNS; U251 CNS; HCC-2998 colon; CAKI-1 renal; T-47D breast; COLO 205 colon; NCI-H522 lung; UACC-62 melanoma; MDA-MB-435.
Common to all, as to test: DTP human tumour cell line panel, 48 h

Molecules are shown by their SMILES. Where “and” joins values, the source holds several entries; their conditions need not be identical. Equal values may be shown once.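 48-hour exposure; five concentrations; linearly interpolated endpoints. Here, GI50 denotes the concentration required for 50% inhibition of growth. Definition used: TGI = concentration required for complete inhibition of growth.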

For the compound `Cc1ccc2nc(-c3ccc(N(C)C)c(Br)c3)cn2c1`, the GI50 was > 100 µM in the experiment on OVCAR-4 ovarian; > 100 µM in the experiment with SF-295 CNS; 7.19 µM in the experiment on U251 CNS; > 100 µM in the experiment with HCC-2998 colon; > 100 µM in the experiment on CAKI-1 renal; > 100 µM in the experiment with T-47D breast. For the same compound, the GI50 in the experiment on COLO 205 colon is > 100 µM; with NCI-H522 lung, > 100 µM; in the experiment on UACC-62 melanoma it was > 100 µM; in the experiment on MDA-MB-435 it was 22.6 µM. The TGI in the experiment on OVCAR-4 ovarian, in the experiment with SF-295 CNS, with U251 CNS, in the experiment with HCC-2998 colon, with CAKI-1 renal and with T-47D breast was > 100 µM throughout. For the same compound, the TGI in the experiment on COLO 205 colon, in the experiment on NCI-H522 lung, in the experiment with UACC-62 melanoma and in the experiment with MDA-MB-435 was > 100 µM each time.
For `CCC[n+]1cc2cc(OC)c(OC)cc2c2c1-c1cc3c(cc1C2)OCO3`, the GI50 was 4.84 µM in the experiment with OVCAR-4 ovarian; 8.1 µM with SF-295 CNS; 0.211 µM in the experiment on U251 CNS; 3.99 µM in the experiment on HCC-2998 colon; 7.14 µM with CAKI-1 renal; 0.583 µM in the experiment on T-47D breast. Moreover, the GI50 with COLO 205 colon is 1.61 µM; with NCI-H522 lung, 0.0792 µM; in the experiment on UACC-62 melanoma it was 2.06 µM; with MDA-MB-435 it was 3.29 µM. Also, the TGI with OVCAR-4 ovarian came out at 19.2 µM; in the experiment with SF-295 CNS, 26.6 µM; in the experiment on U251 CNS, 3.57 µM; in the experiment with HCC-2998 colon, 14.9 µM; with CAKI-1 renal it was 44.2 µM; with T-47D breast it was 3.92 µM. In addition, the total growth inhibition concentration (TGI) with COLO 205 colon was 8.52 µM; in the experiment with NCI-H522 lung, 1.71 µM; in the experiment on UACC-62 melanoma, 5.77 µM; in the experiment with MDA-MB-435, 12.4 µM.
Regarding `OCCNc1ncnc2c1ncn2Cc1cccc(COc2cccc(OCc3cccc(Cn4cnc5c(NCCO)ncnc54)c3)c2)c1`, the GI50 with OVCAR-4 ovarian was 14.7 µM; in the experiment on SF-295 CNS, 13 µM; in the experiment with U251 CNS, 12.3 µM; in the experiment with HCC-2998 colon it was 15.1 µM; with CAKI-1 renal it was 18.4 µM; in the experiment on T-47D breast, 16 µM. In addition, the GI50 was 13.5 µM in the experiment on COLO 205 colon, 12.5 µM with NCI-H522 lung, 17 µM in the experiment on UACC-62 melanoma and 14.9 µM in the experiment with MDA-MB-435. Also, the TGI turned out to be 34.2 µM in the experiment on OVCAR-4 ovarian; 31.8 µM in the experiment on SF-295 CNS; 24.7 µM in the experiment on U251 CNS; 33.6 µM in the experiment on HCC-2998 colon; 42.1 µM with CAKI-1 renal; 33.4 µM with T-47D breast. Further, the TGI in the experiment on COLO 205 colon was 32.2 µM; in the experiment on NCI-H522 lung, 31.8 µM; in the experiment with UACC-62 melanoma, 33.8 µM; in the experiment on MDA-MB-435, 35.7 µM.
Turning to `CCOc1cc(/C=N\Nc2nnc(C)n2N)c(C)cc1N(CCCl)CCCl`, the GI50 in the experiment with OVCAR-4 ovarian is 0.338 µM; in the experiment on SF-295 CNS it was 1.13 µM; with U251 CNS, 0.747 µM; in the experiment on HCC-2998 colon it was 1.45 µM; in the experiment on CAKI-1 renal, 1.31 µM; in the experiment on T-47D breast, 0.46 µM. The GI50 was 0.375 µM in the experiment with COLO 205 colon, 0.461 µM with NCI-H522 lung, 0.525 µM in the experiment with UACC-62 melanoma and 0.5 µM in the experiment with MDA-MB-435. Further, the TGI in the experiment on OVCAR-4 ovarian was > 68.2 µM; in the experiment on SF-295 CNS, 6.23 µM; with U251 CNS it was > 28.5 µM; in the experiment on HCC-2998 colon, 16 µM; in the experiment on CAKI-1 renal, 9.44 µM; with T-47D breast, 14.3 µM. Besides, the TGI in the experiment on COLO 205 colon is 1.89 µM; in the experiment with NCI-H522 lung, 5.8 µM; in the experiment on UACC-62 melanoma, 15.3 µM; in the experiment on MDA-MB-435 it was > 39.1 µM.
As for `O=C1c2cc(Cl)ccc2-c2c1c1ccc([N+](=O)[O-])cc1c(=O)n2CCCBr`, the GI50 is 78.2 µM in the experiment on OVCAR-4 ovarian; 2.63 µM with SF-295 CNS; 3.07 µM in the experiment with U251 CNS; 42.6 µM in the experiment on HCC-2998 colon; 1.72 µM in the experiment on CAKI-1 renal; 3.23 µM in the experiment with T-47D breast. In addition, the GI50 with COLO 205 colon was 3.37 µM; in the experiment with NCI-H522 lung it was 5.02 µM; in the experiment with UACC-62 melanoma, 3.45 µM; with MDA-MB-435 it was 14.9 µM. Besides, the TGI with OVCAR-4 ovarian was > 100 µM; in the experiment with SF-295 CNS, > 100 µM; in the experiment with U251 CNS, > 100 µM; in the experiment with HCC-2998 colon, > 100 µM; in the experiment with CAKI-1 renal, 19.3 µM; in the experiment with T-47D breast it was 33.8 µM. Also, the TGI in the experiment on COLO 205 colon was > 100 µM; in the experiment with NCI-H522 lung, 43.4 µM; with UACC-62 melanoma, 39.8 µM; with MDA-MB-435 it was > 100 µM.
Consider `COc1ccc(Cn2cc3c(c2)-c2oncc2CC3)cc1`, for which the GI50 in the experiment with OVCAR-4 ovarian was 6.53 µM; with SF-295 CNS it was 4.08 µM; with U251 CNS, 4.43 µM; in the experiment with HCC-2998 colon, 5.98 µM; in the experiment with CAKI-1 renal, 6.24 µM; with T-47D breast, 5.09 µM. The GI50 is 3.59 µM in the experiment on COLO 205 colon, 3.24 µM in the experiment with NCI-H522 lung, 3.75 µM in the experiment with UACC-62 melanoma and 0.635 µM in the experiment on MDA-MB-435. For the same compound, the TGI was > 29.8 µM in the experiment with OVCAR-4 ovarian; 35.9 µM with SF-295 CNS; > 92 µM in the experiment on U251 CNS; 27.5 µM in the experiment with HCC-2998 colon; > 100 µM in the experiment with CAKI-1 renal; > 100 µM with T-47D breast. The TGI was 14.5 µM in the experiment on COLO 205 colon, 16.7 µM with NCI-H522 lung, > 100 µM in the experiment with UACC-62 melanoma and 5.75 µM in the experiment with MDA-MB-435.
For `Cn1c2c(c3ccc(Cl)c(Cl)c31)C(C#N)C1(CCNCC1)NC2=O` (centres undefined), the GI50 with OVCAR-4 ovarian is 2.82 µM; in the experiment with SF-295 CNS, 2.46 µM; in the experiment on U251 CNS, 2.94 µM; with HCC-2998 colon, 1.31 µM; in the experiment on CAKI-1 renal it was 0.384 µM; with T-47D breast it was 1.72 µM. Also, the GI50 was 1.19 µM with COLO 205 colon, 1.55 µM with NCI-H522 lung, 1.63 µM in the experiment on UACC-62 melanoma and 1.4 µM in the experiment with MDA-MB-435. Moreover, the TGI in the experiment on OVCAR-4 ovarian turned out to be 8.8 µM; in the experiment with SF-295 CNS it was 8.1 µM; with U251 CNS it was 10.7 µM; in the experiment on HCC-2998 colon it was 2.69 µM; in the experiment with CAKI-1 renal, 1.75 µM; with T-47D breast it was 3.94 µM. Further, the TGI in the experiment with COLO 205 colon was found to be 2.54 µM; with NCI-H522 lung, 3.42 µM; in the experiment with UACC-62 melanoma, 3.31 µM; in the experiment on MDA-MB-435 it was 2.9 µM.
As to `COc1ccc(-c2oc3c(OC)c(OC)c(OC)c(OC)c3c(=O)c2OC)cc1OC`, the TGI with OVCAR-4 ovarian, in the experiment with SF-295 CNS, in the experiment on U251 CNS, in the experiment on HCC-2998 colon, in the experiment with CAKI-1 renal and in the experiment with T-47D breast was > 100 µM each time. In addition, the TGI in the experiment on COLO 205 colon was > 100 µM; in the experiment with NCI-H522 lung, 49.4 µM; in the experiment with UACC-62 melanoma, > 100 µM; with MDA-MB-435 it was 98.7 µM.
Consider `CC1C(=O)OCC2=CCN3CCC(OC(=O)C(C)C1(C)O)C23` (centres undefined), for which the TGI with OVCAR-4 ovarian, in the experiment on SF-295 CNS, with U251 CNS, with HCC-2998 colon, with CAKI-1 renal and in the experiment on T-47D breast was > 100 µM in each case. For the same compound, the concentration for total growth inhibition (TGI) in the experiment on COLO 205 colon, in the experiment with NCI-H522 lung, in the experiment on UACC-62 melanoma and with MDA-MB-435 was > 100 µM in each case.
`O=c1cccc(C2CC(CO)C3CCCCN3C2)[nH]1` (centres undefined): the TGI with OVCAR-4 ovarian, in the experiment on SF-295 CNS, in the experiment on U251 CNS, with HCC-2998 colon, with CAKI-1 renal and with T-47D breast was > 100 µM in each case. The TGI with COLO 205 colon, in the experiment with NCI-H522 lung, in the experiment with UACC-62 melanoma and in the experiment on MDA-MB-435 was > 100 µM in each case.
On to `COc1ccccc1/C=C/C(=O)c1ccccc1`, for which the GI50 with OVCAR-4 ovarian is 9.33 µM; with SF-295 CNS, 14.8 µM; in the experiment with U251 CNS it was 3.69 µM; in the experiment on HCC-2998 colon it was 17 µM; in the experiment on CAKI-1 renal it was 6.3 µM; with T-47D breast it was 16.8 µM. Besides, the GI50 with COLO 205 colon is 16.9 µM; with NCI-H522 lung it was 4.11 µM; in the experiment with UACC-62 melanoma it was 5.17 µM; with MDA-MB-435, 5.16 µM. In addition, the TGI turned out to be 25.9 µM in the experiment on OVCAR-4 ovarian; 30.9 µM in the experiment with SF-295 CNS; 15 µM in the experiment with U251 CNS; 31.8 µM with HCC-2998 colon; 18.6 µM in the experiment on CAKI-1 renal; 63.3 µM in the experiment with T-47D breast. Also, the TGI in the experiment with COLO 205 colon amounted to 42.1 µM; in the experiment with NCI-H522 lung it was 17.4 µM; with UACC-62 melanoma, 18.4 µM; with MDA-MB-435 it was 21.7 µM.
For `COc1cc2ncnc(Nc3ccc(F)c(Cl)c3)c2cc1NC(=O)/C=C/CN1CCCCC1`, the GI50 in the experiment with OVCAR-4 ovarian was 1.16 µM and 1.79 µM; with SF-295 CNS, 1.78 µM and 2.44 µM; in the experiment with U251 CNS, 1.46 µM and 1.87 µM; in the experiment with HCC-2998 colon it was 1.97 µM and 1.75 µM; in the experiment with T-47D breast, 0.381 µM and 0.0625 µM; in the experiment with COLO 205 colon, 1.68 µM and 2 µM. Further, the GI50 is 0.0296 µM and 0.00694 µM in the experiment with NCI-H522 lung; 1.61 µM and 1.73 µM with UACC-62 melanoma; 1.6 µM and 1.46 µM with MDA-MB-435. Also, the TGI is 4.86 µM and 7.17 µM in the experiment on OVCAR-4 ovarian; 4.03 µM and > 7.08 µM with SF-295 CNS; 3.26 µM and 4.27 µM with U251 CNS; 4.38 µM and 4.29 µM in the experiment on HCC-2998 colon; 2.81 µM and 3.43 µM with CAKI-1 renal; 3.67 µM and 4.9 µM in the experiment with T-47D breast. In addition, the TGI in the experiment with COLO 205 colon was 3.43 µM and 4.18 µM; with NCI-H522 lung, 1.64 µM and 1.89 µM; in the experiment with UACC-62 melanoma, 3.02 µM and 3.23 µM; in the experiment with MDA-MB-435, 3.42 µM and 2.95 µM.

As a reminder, the GI50 is the concentration that inhibits growth by half. In general, TGI refers to the concentration giving total growth inhibition.
